According to ChEMBL document CHEMBL1144960, “Studies on the synthesis and anti-Osteoporosis of estrogen-GHRPs linkers” (2003):

Columns and labels:
Type in all cases: functional
[1] = tested on: Rattus norvegicus; assay: Activity tested for the content of calcium in serum of rat when 18 ug/kg of compound was administered intramuscularly when compared to prednisone
[2] = tested on: Rattus norvegicus; assay: Weight of rat femur tested after intramuscular administration of 18 ug/kg of compound when compared to vehicle
[3] = organism: Rattus norvegicus; assay: Percentage content of calcium in femur tested in the compound using male ICR rats when compared to vehicle
[4] = tested on: Rattus norvegicus; assay: Weight of rat femur ash tested after intramuscular administration of 18 ug/kg of compound when compared to vehicle
[5] = tested on: Rattus norvegicus; assay: Activity of alkaline phosphatase (ALP) tested in serum of rat when 18 ug/kg of compound was administered intramuscularly
[6] = tested on: Rattus norvegicus; assay: Weight of rat body tested after intramuscular administration of 18 ug/kg of compound when compared to prednisone
[7] = organism: Rattus norvegicus; assay: Percentage content of phosphor in femur tested in the compound using male ICR rats
[8] = tested on: Rattus norvegicus; assay: Activity tested for the content of calcium in serum of rat when 18 ug/kg of compound was administered intramuscularly when compared to vehicle
[9] = tested on: Rattus norvegicus; assay: Weight of rat body tested after intramuscular administration of 18 ug/kg of compound when compared to vehicle

SMILES	Ca2+ [1]	Weight [2]	Ca2+ [3]	Weight [4]	Activity [5]	Weight [6]	Phosphor [7]	Ca2+ [8]	Weight [9]
CC(C)C[C@H](NC(=O)[C@H](Cc1ccccc1)NC(=O)CNC(=O)CNC(=O)[C@H](Cc1ccc(O)cc1)NC(=O)CCC(=O)O[C@H]1CC[C@H]2[C@@H]3CCc4cc(O)ccc4[C@H]3CC[C@]12C)C(N)=O	1.92 mM	–	–	–	–	–	–	–	–
C[C@]12CC[C@@H]3c4ccc(O)cc4CC[C@H]3[C@@H]1CCC2O (single isomer, unassigned) [ESTRADIOL]	2.13 mM	35.09 mg	42.11%	22.82 mg	44.1	35.39 g	21.85%	–	–
C[C@]12CC[C@@H]3c4ccc(O)cc4CCC3[C@@H]1CCC2=O (single isomer, unassigned) [ESTRONE]	–	33.93 mg	40.83%	21.69 mg	45.84	–	22.02%	2.28 mM	33.62 g
CC(C)C[C@H](NC(=O)[C@H](Cc1ccccc1)NC(=O)CNC(=O)CNC(=O)[C@@H](N)Cc1ccc(O)cc1)C(=O)O [ENKEPHALIN]	–	–	–	21.74 mg	37.7	–	22.27%	–	33.29 g
C[C@]12C=CC(=O)C=C1CC[C@@H]1[C@@H]2C(=O)C[C@@]2(C)[C@H]1CC[C@]2(O)C(=O)CO [PREDNISONE]	–	33.39 mg	39.54%	21.26 mg	48.7	–	20.87%	2.42 mM	31.89 g
CC(C)C[C@H](NC(=O)[C@H](Cc1ccccc1)NC(=O)CNC(=O)CNC(=O)[C@@H](N)Cc1ccc(O)cc1)C(N)=O [[LEU5]ENKEPHALIN]	2.01 mM	–	–	22.8 mg	34.22	–	22.35%	–	34.16 g
